In general, IC50 refers to the concentration needed to halve the response being measured.

In one assay the test system is MDA-MB-231. In words: Antiproliferative activity against human MDA-MB-231 cells assessed as reduction in cell viability incubated for 24 hrs by MTT assay. It counts as functional, cell-based. Conditions: MDA-MB-231, 24 h. Background: Tetrazolium dyes change colour on reduction, which living cells bring about.
The next assay concerns SNU-449. In words: Antiproliferative activity against human SNU-449 cells assessed as reduction in cell viability incubated for 24 hrs by MTT assay. As to conditions: SNU-449, 24 h. The class given is functional, cell-based.
A further assay has as its system SK-OV-3. Kind of assay: Antiproliferative activity against human SK-OV-3 cells assessed as reduction in cell viability incubated for 24 hrs by MTT assay. It counts as functional, cell-based. As to conditions: SK-OV-3, 24 h.
The next assay has as its system DU-145. In words: Antiproliferative activity against human DU-145 cells assessed as reduction in cell viability incubated for 24 hrs by MTT assay. The class given is functional, cell-based. As to conditions: DU-145, 24 h.
In another assay the test system is HCT-116. Kind of assay: Antiproliferative activity against human HCT-116 cells assessed as reduction in cell viability incubated for 24 hrs by MTT assay. The class given is functional, cell-based. Conditions: HCT-116, 24 h.
The subject of the next assay is Fusarium oxysporum. Kind of assay: Antifungal activity against Fusarium oxysporum KCTC 16654. The class given is functional, organism-based.
Another assay has as its system Candida albicans. In words: Antifungal activity against Candida albicans. The class given is functional, organism-based.
Another assay relates to [Candida] auris. In words: Antifungal activity against Candida auris. It counts as functional, organism-based. Conditions: Candidozyma auris.

Each structure is given as a SMILES string. Calls of active or inactive are those of the source. The rule behind the calls is not given here. Square brackets hold non-standard residues; d marks the D form. Peptide text beside a SMILES is read from it. * marks the point of attachment. Leu(ol) = CC(C)C[C@H](N)CO; dIva = CC[C@@](C)(N)C(=O)O; Octanoyl = CCCCCCCC(=O)*; Aib = CC(C)(N)C(=O)O

As for `CCCCCCCC(=O)NCC(=O)N[C@@H](C)C(=O)N[C@H](C(=O)N[C@](C)(CC)C(=O)N[C@@H](C)C(=O)N[C@@H](CC(C)C)C(=O)N[C@H](CO)CC(C)C)C(C)C`, the IC50 in the assay on MDA-MB-231 came out at 11.5 µM; in the assay with SNU-449, 39 µM; in the assay with SK-OV-3, 47 µM; with DU-145 it was 15.1 µM; in the assay with HCT-116, 8.9 µM. Further, the outcome (in the assay on Fusarium oxysporum; in the assay with Candida albicans; in assay [Candida] auris) was inactive.

As to `CC(=O)NC(C)(C)C(=O)N[C@@H](C)C(=O)NC(C)(C)C(=O)NC(C)(C)C(=O)N[C@@H](CC(C)C)C(=O)N[C@@H](CCC(N)=O)C(=O)NC(C)(C)C(=O)NC(C)(C)C(=O)NC(C)(C)C(=O)N[C@@H](CO)C(=O)N[C@@H](CC(C)C)C(=O)NC(C)(C)C(=O)N1CCC[C@H]1C(=O)N[C@H](C(=O)NC(C)(C)C(=O)NC(C)(C)C(=O)N[C@@H](CCC(N)=O)C(=O)N[C@@H](CCC(N)=O)C(=O)N[C@H](CO)CC(C)C)C(C)C` (Ac-[Aib]A[Aib][Aib]LQ[Aib][Aib][Aib]SL[Aib]PV[Aib][Aib]QQ[Leu(ol)]), the IC50 is 2.3 µM in the assay on MDA-MB-231; 10.4 µM in the assay on SNU-449; 4.1 µM in the assay with SK-OV-3; 4.4 µM in the assay with DU-145; 3.7 µM in the assay on HCT-116. Besides, the outcome (in the assay with Fusarium oxysporum; in the assay with Candida albicans; in assay [Candida] auris) was inactive.

As for `CC[C@H](C)[C@H](NC(=O)C(C)(C)NC(=O)C(C)(C)NC(=O)[C@H](C)NC(=O)C(C)(C)NC(C)=O)C(=O)N[C@@H](CCC(N)=O)C(=O)NC(C)(C)C(=O)NC(C)(C)C(=O)NC(C)(C)C(=O)N[C@@H](CO)C(=O)N[C@@H](CC(C)C)C(=O)NC(C)(C)C(=O)N1CCC[C@H]1C(=O)N[C@H](C(=O)NC(C)(C)C(=O)NC(C)(C)C(=O)N[C@@H](CCC(N)=O)C(=O)N[C@@H](CCC(N)=O)C(=O)N[C@H](CO)CC(C)C)C(C)C` (Ac-[Aib]A[Aib][Aib]IQ[Aib][Aib][Aib]SL[Aib]PV[Aib][Aib]QQ[Leu(ol)]), the IC50 in the assay with MDA-MB-231 was 2.3 µM; with SNU-449, 5.7 µM; with SK-OV-3 it was 3.8 µM; in the assay on DU-145, 2.1 µM; in the assay with HCT-116, 3.2 µM. In addition, the result (in the assay with Fusarium oxysporum; with Candida albicans; in assay [Candida] auris) was inactive.

With `CCCCCCCC(=O)NCC(=O)N[C@@H](C)C(=O)N[C@@H](CC(C)C)C(=O)NC(C)(C)C(=O)N[C@@H](C)C(=O)N[C@H](C(=O)N[C@H](CO)CC(C)C)[C@@H](C)CC` (Octanoyl-GAL[Aib]AI[Leu(ol)]), the IC50 in the assay on MDA-MB-231 is 17.6 µM; in the assay on SNU-449 it was over 150 µM; in the assay on SK-OV-3, 18.7 µM; in the assay on DU-145 it was 25.4 µM; with HCT-116 it was 27.4 µM. The result (in the assay on Fusarium oxysporum; with Candida albicans; in assay [Candida] auris) was inactive.

For the molecule `CCCCCCCC(=O)NCC(=O)N[C@@H](C)C(=O)N[C@@H](CC(C)C)C(=O)N[C@](C)(CC)C(=O)N[C@@H](C)C(=O)N[C@@H](CC(C)C)C(=O)N[C@H](CO)CC(C)C`, the IC50 in the assay on MDA-MB-231 turned out to be 18.5 µM; with SNU-449 it was 222 µM; in the assay on SK-OV-3, 50.3 µM; in the assay on DU-145 it was 18.2 µM; in the assay with HCT-116 it was 37.9 µM. In addition, the result (in the assay with Fusarium oxysporum; in the assay with Candida albicans; in assay [Candida] auris) was inactive.

As to `CC(=O)NC(C)(C)C(=O)N[C@@H](CO)C(=O)NC(C)(C)C(=O)NC(C)(C)C(=O)N[C@@H](CC(C)C)C(=O)N[C@@H](CCC(N)=O)C(=O)NC(C)(C)C(=O)NC(C)(C)C(=O)NC(C)(C)C(=O)N[C@@H](CO)C(=O)N[C@@H](CC(C)C)C(=O)NC(C)(C)C(=O)N1CCC[C@H]1C(=O)N[C@H](C(=O)NC(C)(C)C(=O)NC(C)(C)C(=O)N[C@@H](CCC(N)=O)C(=O)N[C@@H](CCC(N)=O)C(=O)N[C@H](CO)CC(C)C)C(C)C` (Ac-[Aib]S[Aib][Aib]LQ[Aib][Aib][Aib]SL[Aib]PV[Aib][Aib]QQ[Leu(ol)]), the IC50 in the assay on MDA-MB-231 was found to be 2.5 µM; with SNU-449 it was 13 µM; in the assay with SK-OV-3, 12.4 µM; in the assay on DU-145, 3.3 µM; in the assay on HCT-116, 4.4 µM. The result (with Fusarium oxysporum; with Candida albicans; in assay [Candida] auris) was inactive.

On to `CC[C@H](C)[C@H](NC(=O)C(C)(C)NC(=O)C(C)(C)NC(=O)[C@H](CO)NC(=O)C(C)(C)NC(C)=O)C(=O)N[C@@H](CCC(N)=O)C(=O)NC(C)(C)C(=O)NC(C)(C)C(=O)NC(C)(C)C(=O)N[C@@H](CO)C(=O)N[C@@H](CC(C)C)C(=O)NC(C)(C)C(=O)N1CCC[C@H]1C(=O)N[C@H](C(=O)NC(C)(C)C(=O)NC(C)(C)C(=O)N[C@@H](CCC(N)=O)C(=O)N[C@@H](CCC(N)=O)C(=O)N[C@H](CO)CC(C)C)C(C)C` (Ac-[Aib]S[Aib][Aib]IQ[Aib][Aib][Aib]SL[Aib]PV[Aib][Aib]QQ[Leu(ol)]), for which the IC50 in the assay on MDA-MB-231 was determined as 1 µM; in the assay with SNU-449, 11.3 µM; in the assay with SK-OV-3, 2.4 µM; in the assay with DU-145 it was 2 µM; in the assay with HCT-116, 4.3 µM. The result (in the assay on Fusarium oxysporum; in the assay with Candida albicans; in assay [Candida] auris) was inactive.

Take `CC(=O)NC(C)(C)C(=O)N[C@@H](C)C(=O)NC(C)(C)C(=O)NC(C)(C)C(=O)N[C@@H](CC(C)C)C(=O)N[C@@H](CCC(N)=O)C(=O)NC(C)(C)C(=O)NC(C)(C)C(=O)NC(C)(C)C(=O)N[C@@H](CO)C(=O)N[C@H](C(=O)NC(C)(C)C(=O)N1CCC[C@H]1C(=O)N[C@H](C(=O)NC(C)(C)C(=O)NC(C)(C)C(=O)N[C@@H](CCC(N)=O)C(=O)N[C@@H](CCC(N)=O)C(=O)N[C@H](CO)CC(C)C)C(C)C)C(C)C` (Ac-[Aib]A[Aib][Aib]LQ[Aib][Aib][Aib]SV[Aib]PV[Aib][Aib]QQ[Leu(ol)]): the concentration for half-maximal inhibition (IC50) in the assay with MDA-MB-231 turned out to be 7.2 µM; with SNU-449, 30.8 µM; in the assay with SK-OV-3, 11.9 µM; with DU-145, 12 µM; with HCT-116 it was 8.7 µM. Further, the result (in the assay with Fusarium oxysporum; with Candida albicans; in assay [Candida] auris) was inactive.

Take `CC(=O)NC(C)(C)C(=O)N[C@@H](CO)C(=O)NC(C)(C)C(=O)NC(C)(C)C(=O)N[C@@H](CC(C)C)C(=O)N[C@@H](CCC(N)=O)C(=O)NC(C)(C)C(=O)NC(C)(C)C(=O)NC(C)(C)C(=O)N[C@@H](CO)C(=O)N[C@H](C(=O)NC(C)(C)C(=O)N1CCC[C@H]1C(=O)N[C@H](C(=O)NC(C)(C)C(=O)NC(C)(C)C(=O)N[C@@H](CCC(N)=O)C(=O)N[C@@H](CCC(N)=O)C(=O)N[C@H](CO)CC(C)C)C(C)C)C(C)C` (Ac-[Aib]S[Aib][Aib]LQ[Aib][Aib][Aib]SV[Aib]PV[Aib][Aib]QQ[Leu(ol)]): the IC50 in the assay on MDA-MB-231 is 80.2 µM; with SNU-449, 131 µM; in the assay with SK-OV-3 it was 41.1 µM; in the assay with DU-145 it was 30.9 µM; in the assay with HCT-116, 32.8 µM. In addition, the outcome (with Fusarium oxysporum; with Candida albicans; in assay [Candida] auris) was inactive.

`CCCCCCCC(=O)NCC(=O)N[C@@H](C)C(=O)N[C@H](C(=O)NC(C)(C)C(=O)N[C@@H](C)C(=O)N[C@@H](CC(C)C)C(=O)N[C@H](CO)CC(C)C)C(C)C` (Octanoyl-GAV[Aib]AL[Leu(ol)]): the concentration for half-maximal inhibition (IC50) with MDA-MB-231 was 25.7 µM; in the assay on SNU-449, over 150 µM; in the assay on SK-OV-3 it was 60.7 µM; in the assay on DU-145, 31.8 µM; with HCT-116, over 150 µM. In addition, the outcome (in the assay with Fusarium oxysporum; in the assay with Candida albicans; in assay [Candida] auris) was inactive.

On to `COc1cccc2c1C(=O)c1c(O)c3c(c(O)c1C2=O)C[C@@](O)(C(=O)CO)C[C@@H]3O[C@H]1C[C@H](N)[C@H](O)[C@H](C)O1` [DOXORUBICIN], for which the IC50 stood at 71.4 µM with SNU-449, 88.4 µM with SK-OV-3, 91.2 µM with DU-145 and 73.6 µM with HCT-116. For the same molecule, the outcome (in the assay on Fusarium oxysporum; with Candida albicans; in assay [Candida] auris) was inactive.

For `CCCCCCCC(=O)NCC(=O)N[C@@H](C)C(=O)N[C@@H](CC(C)C)C(=O)N[C@](C)(CC)C(=O)N[C@@H](C)C(=O)N[C@H](C(=O)N[C@H](CO)CC(C)C)[C@@H](C)CC` (Octanoyl-GAL[dIva]AI[Leu(ol)]), the IC50 came out at 4.5 µM in the assay on MDA-MB-231; 8.8 µM with SNU-449; 6.3 µM in the assay with SK-OV-3; 4.5 µM in the assay on DU-145; 8 µM in the assay on HCT-116. Besides, the result (in the assay on Fusarium oxysporum; in the assay on Candida albicans; in assay [Candida] auris) was inactive.

For `CCCCCCCC(=O)NCC(=O)N[C@@H](C)C(=O)N[C@@H](CC(C)C)C(=O)NC(C)(C)C(=O)N[C@@H](C)C(=O)N[C@@H](CC(C)C)C(=O)N[C@H](CO)CC(C)C` (Octanoyl-GAL[Aib]AL[Leu(ol)]), the IC50 in the assay on MDA-MB-231 was determined as 7.3 µM; with SNU-449 it was 17.3 µM; in the assay on SK-OV-3, 12.5 µM; in the assay with DU-145, 13 µM; in the assay with HCT-116, 12 µM. Also, the result (with Fusarium oxysporum; with Candida albicans; in assay [Candida] auris) was inactive.

The values above are taken from ChEMBL document CHEMBL5584297, “Cytotoxic Peptaibols from Trichoderma strigosum” (J Nat Prod, 2024).
